Measurements published in patent US11505543B2, “4-oxo-3,4-dihydroquinazoline compounds as inhibitors of human immunodeficiency virus replication” (VIIV HEALTHCARE UK (NO.5) LIMITED, priority 2018, dated 2022).

Columns and labels:
[1] = tested on: recombinant NL4-3 virus (nef section replaced with Renilla luciferase gene) in MT-2 cells; assay: HIV cell culture assay (antiviral activity, luciferase readout); format: cell-based; conditions: Renilla, NL43, MT-2 cells infected for 4-5 days with recombinant NL4-3 Renilla luciferase virus, serial dilutions of compound
Summary of the method: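 Test compound in serial dilution was present while MT-2 cells were infected for 4–5 days with recombinant NL4-3 virus made in 293T cells. Antiviral activity was quantified as Renilla luciferase activity, read with a live-cell substrate. EC50 came from the median-effect equation.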

[2] = Compound cytotoxicity, XTT-based colorimetric assay; format: cell-based; conditions: human, uninfected MT2 cells, day 4, XTT
Summary of the method: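 Run under the antiviral-assay protocol but without virus. Viability was read on day 4 and CC50 values were derived from the readout.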

SMILES | EC50 [1] | CC50 at 4 day [2]
O=C(Cn1ccc(C2CC2)n1)N[C@@H](Cc1cc(F)cc(F)c1)c1nc2cc(-c3cccc(F)c3F)ccc2c(=O)n1-c1ccc(S(=O)(=O)N2CCOCC2)cc1 [Example 74, (S)-2-(3-cyclopropyl-1H-pyrazol-1-yl)-N-(2-(3,5-difluorophenyl)-1-(7-(2,3-difluorophenyl)-3-(4-(morpholinosulfonyl)phenyl)-4-oxo-3,4-dihydroquinazolin-2-yl)ethyl)acetamide] | 16 nM | > 1000 nM
Cn1nc(NS(C)(=O)=O)c2c(Cl)ccc(-n3c([C@H](Cc4cc(F)cc(F)c4)NC(=O)Cn4nc(C(F)F)c5c4C(F)(F)[C@@H]4C[C@H]54)nc4cc(-c5ccc(F)cc5F)ccc4c3=O)c21 [Example 187, N-((S)-1-(3-(4-chloro-1-methyl-3-(methylsulfonamido)-1H-indazol-7-yl)-7-(2,4-difluorophenyl)-4-oxo-3,4-dihydroquinazolin-2-yl)-2-(3,5-difluorophenyl)ethyl)-2-((3bS,4aR)-3-(difluoromethyl)-5,5-difluoro-3b,4,4a,5-tetrahydro-1H-cyclopropa[3,4]cyclopenta[1,2-c]pyrazol-1-yl)acetamide] | 0.28 nM | > 1000 nM
Cn1nc(NS(C)(=O)=O)c2c(Cl)ccc(-n3c([C@H](Cc4cc(F)cc(F)c4)NC(=O)Cn4nc(C(F)F)c5c4C(F)(F)[C@@H]4C[C@H]54)nc4cc(-c5cnccc5F)ccc4c3=O)c21 (atropisomer, axis not shown; (aR)) [Example 96, N-((S)-1-(3-(4-chloro-1-methyl-3-(methylsulfonamido)-1H-indazol-7-yl)-7-(4-fluoropyridin-3-yl)-4-oxo-3,4-dihydroquinazolin-2-yl)-2-(3,5-difluorophenyl)ethyl)-2-((3bS,4aR)-3-(difluoromethyl)-5,5-difluoro-3b,4,4a,5-tetrahydro-1H-cyclopropa[3,4]cyclopenta[1,2-c]pyrazol-1-yl)acetamide] | 0.076 nM | > 1000 nM
Cc1noc(C)c1-c1ccc2c(=O)n(-c3ccc(Cl)c4c(NS(C)(=O)=O)nn(C)c34)c([C@H](Cc3cc(F)cc(F)c3)NC(=O)Cn3nc(C(F)F)c4c3C(F)(F)[C@@H]3C[C@H]43)nc2c1 (atropisomer, axis not shown; (aR)) [Example 94, N-((S)-1-(3-(4-chloro-1-methyl-3-(methylsulfonamido)-1H-indazol-7-yl)-7-(3,5-dimethylisoxazol-4-yl)-4-oxo-3,4-dihydroquinazolin-2-yl)-2-(3,5-difluorophenyl)ethyl)-2-((3bS,4aR)-3-(difluoromethyl)-5,5-difluoro-3b,4,4a,5-tetrahydro-1H-cyclopropa[3,4]cyclopenta[1,2-c]pyrazol-1-yl)acetamide] | 0.44 nM | > 1000 nM
CS(=O)(=O)c1ccccc1-c1ccc2c(=O)n(-c3ccc(Cl)c4c(NS(=O)(=O)C5CC5)nn(CC(F)F)c34)c([C@H](Cc3cc(F)cc(F)c3)NC(=O)Cn3nc(C(F)F)c4c3C(F)(F)[C@@H]3C[C@H]43)nc2c1 [Example 160, N-((S)-1-(3-(4-chloro-3-(cyclopropanesulfonamido)-1-(2,2-difluoroethyl)-1H-indazol-7-yl)-7-(2-(methylsulfonyl)phenyl)-4-oxo-3,4-dihydroquinazolin-2-yl)-2-(3,5-difluorophenyl)ethyl)-2-((3bS,4aR)-3-(difluoromethyl)-5,5-difluoro-3b,4,4a,5-tetrahydro-1H-cyclopropa[3,4]cyclopenta[1,2-c]pyrazol-1-yl)acetamide] | 0.082 nM | > 500 nM
O=C(Cn1ccc(C2CC2)n1)N[C@@H](Cc1cc(F)cc(F)c1)c1nc2cc(-c3ccccc3Cl)ccc2c(=O)n1-c1ccc(S(=O)(=O)N2CCOCC2)cc1 [Example 145, (S)-N-(1-(7-(2-chlorophenyl)-3-(4-(morpholinosulfonyl)phenyl)-4-oxo-3,4-dihydroquinazolin-2-yl)-2-(3,5-difluorophenyl)ethyl)-2-(3-cyclopropyl-1H-pyrazol-1-yl)acetamide] | 16 nM | > 500 nM
COc1ccccc1-c1ccc2c(=O)n(-c3ccc(Cl)c4c(NS(C)(=O)=O)nn(C)c34)c([C@H](Cc3cc(F)cc(F)c3)NC(=O)Cn3nc(C(F)F)c4c3C(F)(F)[C@@H]3C[C@H]43)nc2c1 [Example 186, N-((S)-1-(3-(4-chloro-1-methyl-3-(methylsulfonamido)-1H-indazol-7-yl)-7-(2-methoxyphenyl)-4-oxo-3,4-dihydroquinazolin-2-yl)-2-(3,5-difluorophenyl)ethyl)-2-((3bS,4aR)-3-(difluoromethyl)-5,5-difluoro-3b,4,4a,5-tetrahydro-1H-cyclopropa[3,4]cyclopenta[1,2-c]pyrazol-1-yl)acetamide] | 2.4 nM | > 1000 nM
O=C(Cn1ccc(C2CC2)n1)N[C@@H](Cc1cc(F)cc(F)c1)c1nc2cc(-c3ccc(-c4ccccc4)cc3)ccc2c(=O)n1-c1ccc(S(=O)(=O)N2CCOCC2)cc1 [Example 148, (S)-N-(1-(7-([1,1′-biphenyl]-4-yl)-3-(4-(morpholinosulfonyl)phenyl)-4-oxo-3,4-dihydroquinazolin-2-yl)-2-(3,5-difluorophenyl)ethyl)-2-(3-cyclopropyl-1H-pyrazol-1-yl)acetamide] | 71 nM | > 500 nM
CS(=O)(=O)Nc1nn(CC(F)F)c2c(-n3c([C@H](Cc4cc(F)cc(F)c4)NC(=O)Cn4nc(C(F)F)c5c4C(F)(F)[C@@H]4C[C@H]54)nc4cc(-c5ccccc5F)ccc4c3=O)ccc(Cl)c12 [Example 183, N-((S)-1-(3-(4-chloro-1-(2,2-difluoroethyl)-3-(methylsulfonamido)-1H-indazol-7-yl)-7-(2-fluorophenyl)-4-oxo-3,4-dihydroquinazolin-2-yl)-2-(3,5-difluorophenyl)ethyl)-2-((3bS,4aR)-3-(difluoromethyl)-5,5-difluoro-3b,4,4a,5-tetrahydro-1H-cyclopropa[3,4]cyclopenta[1,2-c]pyrazol-1-yl)acetamide] | 0.39 nM | > 500 nM
Cn1nc(NS(C)(=O)=O)c2c(Cl)ccc(-n3c([C@H](Cc4cc(F)cc(F)c4)NC(=O)Cn4nc(C(F)F)c5c4C(F)(F)[C@@H]4C[C@H]54)nc4cc(-c5cccc(F)c5)ccc4c3=O)c21 (atropisomer, axis not shown; (aR)) [Example 30, N-((S)-1-(3-(4-chloro-1-methyl-3-(methylsulfonamido)-1H-indazol-7-yl)-7-(3-fluorophenyl)-4-oxo-3,4-dihydroquinazolin-2-yl)-2-(3,5-difluorophenyl)ethyl)-2-((3bS,4aR)-3-(difluoromethyl)-5,5-difluoro-3b,4,4a,5-tetrahydro-1H-cyclopropa[3,4]cyclopenta[1,2-c]pyrazol-1-yl)acetamide] | 0.88 nM | > 1000 nM
Cc1cccc(C)c1-c1ccc2c(=O)n(-c3ccc(Cl)c4c(NS(C)(=O)=O)nn(C)c34)c([C@H](Cc3cc(F)cc(F)c3)NC(=O)Cn3nc(C(F)F)c4c3C(F)(F)[C@@H]3C[C@H]43)nc2c1 (atropisomer, axis not shown; (aR)) [Example 26, N-((S)-1-(3-(4-chloro-1-methyl-3-(methylsulfonamido)-1H-indazol-7-yl)-7-(2,6-dimethylphenyl)-4-oxo-3,4-dihydroquinazolin-2-yl)-2-(3,5-difluorophenyl)ethyl)-2-((3bS,4aR)-3-(difluoromethyl)-5,5-difluoro-3b,4,4a,5-tetrahydro-1H-cyclopropa[3,4]cyclopenta[1,2-c]pyrazol-1-yl)acetamide] | 0.72 nM | > 1000 nM
Cn1nc(NS(C)(=O)=O)c2c(Cl)ccc(-n3c([C@H](Cc4cc(F)cc(F)c4)NC(=O)Cn4nc(C(F)F)c5c4C(F)(F)[C@@H]4C[C@H]54)nc4cc(-c5ncccn5)ccc4c3=O)c21 (atropisomer, axis not shown; (aR)) [Example 40, N-((S)-1-(3-(4-chloro-1-methyl-3-(methylsulfonamido)-1H-indazol-7-yl)-4-oxo-7-(pyrimidin-2-yl)-3,4-dihydroquinazolin-2-yl)-2-(3,5-difluorophenyl)ethyl)-2-((3bS,4aR)-3-(difluoromethyl)-5,5-difluoro-3b,4,4a,5-tetrahydro-1H-cyclopropa[3,4]cyclopenta[1,2-c]pyrazol-1-yl)acetamide] | 0.025 nM | > 1000 nM
Cc1c(-c2ccc3c(=O)n(-c4ccc(Cl)c5c(NS(C)(=O)=O)nn(C)c45)c([C@H](Cc4cc(F)cc(F)c4)NC(=O)Cn4nc(C(F)F)c5c4C(F)(F)[C@@H]4CC54)nc3c2)cc(F)c2c1CCCO2 (stereo in doubt) [Example 53, N-((S)-1-(3-(4-chloro-1-methyl-3-(methylsulfonamido)-1H-indazol-7-yl)-7-(8-fluoro-5-methylchroman-6-yl)-4-oxo-3,4-dihydroquinazolin-2-yl)-2-(3,5-difluorophenyl)ethyl)-2-((3bS,4aR)-3-(difluoromethyl)-5,5-difluoro-3b,4,4a,5-tetrahydro-1H-cyclopropa[3,4]cyclopenta[1,2-c]pyrazol-1-yl)acetamide] | 2.1 nM | > 1000 nM
Cn1nc(NS(C)(=O)=O)c2c(Cl)ccc(-n3c([C@H](Cc4cc(F)cc(F)c4)NC(=O)Cn4nc(C(F)F)c5c4C(F)(F)[C@@H]4C[C@H]54)nc4cc(-c5ccc(C(C)(C)O)cc5)ccc4c3=O)c21 (atropisomer, axis not shown; (aR)) [Example 18, N-((S)-1-(3-(4-chloro-1-methyl-3-(methylsulfonamido)-1H-indazol-7-yl)-7-(4-(2-hydroxypropan-2-yl)phenyl)-4-oxo-3,4-dihydroquinazolin-2-yl)-2-(3,5-difluorophenyl)ethyl)-2-((3bS,4aR)-3-(difluoromethyl)-5,5-difluoro-3b,4,4a,5-tetrahydro-1H-cyclopropa[3,4]cyclopenta[1,2-c]pyrazol-1-yl)acetamide] | 0.34 nM | > 1000 nM
